Experiments:
[1] = test system: P. falciparum female gametocytes; design: method as in Miguel-Blanco et al 2017; settings: TCAMS library screen; ref Miguel-Blanco et al 2017; read-out: Pf FGAA IC50; cited from earlier work
[2] = test system: P. falciparum female gametocytes; experiment: P. falciparum female gametogenesis assay (Pf FGAA); settings: 1: YES; 0: NO
[3] = test system: HepG2 cells; settings: HepG2 value reported with Pf FGAA screen; ref Miguel-Blanco et al 2017; cited from earlier work

CC(C)N1CCN(C(CN2CCN(CCCOc3ccccc3-c3ccccc3)CC2)c2ccc(F)cc2)CC1.Cl (stereo not drawn) [TCMDC-135499]
IC50 [1]: 1.41 µM
Is compound selective in assay? Pf FGAA active? [2]: 0 (0: NO)
HepG2 cytoxicity (Pf FGAA screen) [3]: 4.32 µM

COc1ccc2ccccc2c1CCCCN1CCN(CC(c2ccc(F)cc2)N2CCC2)CC1.O=C(O)C(F)(F)F (stereo not drawn) [TCMDC-135867]
IC50 [1]: 5.86 µM
Is compound selective in assay? Pf FGAA active? [2]: 0 (0: NO)
HepG2 cytoxicity (Pf FGAA screen) [3]: 4.37 µM

COc1cc(/C=C(\C2=NC(=O)CS2)c2nc3cccnc3n2C)ccc1O [TCMDC-135917]
IC50 [1]: 0.72 µM
Is compound selective in assay? Pf FGAA active? [2]: 1 (1: YES)
HepG2 cytoxicity (Pf FGAA screen) [3]: 21.14 µM

CCn1c(-c2nonc2N)nc2c(-c3cccc(NC(=O)Nc4ccc(Cl)cc4)c3)ncc(OCCCN)c21.O=C(O)C(F)(F)F [TCMDC-136152]
IC50 [1]: 1.7 µM
Is compound selective in assay? Pf FGAA active? [2]: 0 (0: NO)
HepG2 cytoxicity (Pf FGAA screen) [3]: 10.96 µM

CCn1c(-c2nonc2N)nc2c(-c3cccc(NC(=O)Nc4ccc(C(F)(F)F)cc4)c3)ncc(OCCCN)c21.O=C(O)C(F)(F)F [TCMDC-136179]
IC50 [1]: 0.91 µM
Is compound selective in assay? Pf FGAA active? [2]: 0 (0: NO)
HepG2 cytoxicity (Pf FGAA screen) [3]: 5.62 µM

CCn1c(-c2nonc2N)nc2c(-c3cccc(NC(=O)Nc4ccc5c(c4)CCC5)c3)ncc(OCCCN)c21.O=C(O)C(F)(F)F [TCMDC-136191]
IC50 [1]: 1.03 µM
Is compound selective in assay? Pf FGAA active? [2]: 0 (0: NO)
HepG2 cytoxicity (Pf FGAA screen) [3]: 7.42 µM

CCn1c(-c2nonc2N)nc2c(-c3cccc(NC(=O)NC45CC6CC(CC(C6)C4)C5)c3)ncc(OCCCN)c21.O=C(O)C(F)(F)F [TCMDC-136246]
IC50 [1]: 1.36 µM
Is compound selective in assay? Pf FGAA active? [2]: 0 (0: NO)
HepG2 cytoxicity (Pf FGAA screen) [3]: 6.10 µM

CN(C)CCCNCc1cn(S(=O)(=O)c2ccccc2Cl)c2ccccc12.Cl [TCMDC-136302]
IC50 [1]: 1.84 µM
Is compound selective in assay? Pf FGAA active? [2]: 0 (0: NO)
HepG2 cytoxicity (Pf FGAA screen) [3]: 11.78 µM

Cc1noc(C)c1-c1ccc2c(Nc3nccc4ccccc34)c(C(N)=O)cnc2c1 [TCMDC-136456]
IC50 [1]: 1.54 µM
Is compound selective in assay? Pf FGAA active? [2]: 0 (0: NO)
HepG2 cytoxicity (Pf FGAA screen) [3]: 3.85 µM

Cc1cc(C(F)(F)F)cc(-n2ncc(-c3ccc(C(=O)NCc4ccccc4N)cc3)c2N)n1.O=C(O)C(F)(F)F [TCMDC-136658]
IC50 [1]: 1.46 µM
Is compound selective in assay? Pf FGAA active? [2]: 1 (1: YES)
HepG2 cytoxicity (Pf FGAA screen) [3]: 26.82 µM

CN1CCN(Cc2ccc(OCc3cccc(COc4ccc(CN5CCN(C)CC5)cc4I)c3)c(I)c2)CC1.Cl [TCMDC-137239]
IC50 [1]: 1.85 µM
Is compound selective in assay? Pf FGAA active? [2]: 0 (0: NO)
HepG2 cytoxicity (Pf FGAA screen) [3]: 5.01 µM

CCCCN(CCCC)CCCCNc1c2ccc(Cl)cc2nc2ccc(OC)cc12.Cl [TCMDC-137460]
IC50 [1]: 1.97 µM
Is compound selective in assay? Pf FGAA active? [2]: 0 (0: NO)
HepG2 cytoxicity (Pf FGAA screen) [3]: 4.73 µM

COc1cc(CNCCCCCCNCc2cc(OC)c3ccccc3c2OC)c(OC)c2ccccc12.CS(=O)(=O)O [TCMDC-137502]
IC50 [1]: 1.67 µM
Is compound selective in assay? Pf FGAA active? [2]: 0 (0: NO)
HepG2 cytoxicity (Pf FGAA screen) [3]: 3.67 µM

Clc1ccc(/N=C(/NCCCCCCCN/C(=N\c2ccc(Cl)cc2)Nc2ccc(Cl)cc2)Nc2ccc(Cl)cc2)cc1 [TCMDC-137529]
IC50 [1]: 0.58 µM
Is compound selective in assay? Pf FGAA active? [2]: 0 (0: NO)
HepG2 cytoxicity (Pf FGAA screen) [3]: 2.00 µM

CC(CO)(CO)NCc1cc2c3ccccc3c(CNC(C)(CO)CO)cc2c2ccccc12.CS(=O)(=O)O [TCMDC-137752]
IC50 [1]: 4.42 µM
Is compound selective in assay? Pf FGAA active? [2]: 0 (0: NO)
HepG2 cytoxicity (Pf FGAA screen) [3]: 7.33 µM

Clc1ccc(Nc2nc3ccc(Cl)cc3nc2Nc2ccc(Cl)cc2)cc1 [TCMDC-137772]
IC50 [1]: 1.91 µM
Is compound selective in assay? Pf FGAA active? [2]: 0 (0: NO)
HepG2 cytoxicity (Pf FGAA screen) [3]: 7.86 µM

Clc1nc(Cl)c2c(ccn2Cc2ccccc2)n1 [TCMDC-137801]
IC50 [1]: 1.46 µM
Is compound selective in assay? Pf FGAA active? [2]: 1 (1: YES)
HepG2 cytoxicity (Pf FGAA screen) [3]: >100 µM

CCCCSc1c(CNCCCCCCNCc2ccc3ccccc3c2SCCCC)ccc2ccccc12.CS(=O)(=O)O [TCMDC-137825]
IC50 [1]: 0.97 µM
Is compound selective in assay? Pf FGAA active? [2]: 0 (0: NO)
HepG2 cytoxicity (Pf FGAA screen) [3]: 2.76 µM

COc1c(CNCCCCCCNCc2c(OC)c(OC)c3ccccc3c2OC)c(OC)c2ccccc2c1OC.CS(=O)(=O)O [TCMDC-137837]
IC50 [1]: 3.69 µM
Is compound selective in assay? Pf FGAA active? [2]: 0 (0: NO)
HepG2 cytoxicity (Pf FGAA screen) [3]: 4.42 µM

Nc1nc(N)c2c(ccc3[nH]c(-c4ccccc4Cl)nc32)n1 [TCMDC-137840]
IC50 [1]: 4.42 µM
Is compound selective in assay? Pf FGAA active? [2]: 0 (0: NO)
HepG2 cytoxicity (Pf FGAA screen) [3]: 2.32 µM

CCOc1cc2ccccc2cc1CNCCCCCCNCc1cc2ccccc2cc1OCC.CS(=O)(=O)O [TCMDC-137940]
IC50 [1]: 1.29 µM
Is compound selective in assay? Pf FGAA active? [2]: 0 (0: NO)
HepG2 cytoxicity (Pf FGAA screen) [3]: 6.06 µM

COc1cc2c(OC)cccc2cc1CNCCCCCCNCc1cc2cccc(OC)c2cc1OC.CS(=O)(=O)O [TCMDC-137945]
IC50 [1]: 1.82 µM
Is compound selective in assay? Pf FGAA active? [2]: 0 (0: NO)
HepG2 cytoxicity (Pf FGAA screen) [3]: 4.90 µM

CCCOc1c(CCNCCCCNCCc2ccc3ccccc3c2OCCC)ccc2ccccc12.CS(=O)(=O)O [TCMDC-137950]
IC50 [1]: 0.64 µM
Is compound selective in assay? Pf FGAA active? [2]: 0 (0: NO)
HepG2 cytoxicity (Pf FGAA screen) [3]: 1.72 µM

COc1c(CNCCCCCCNCc2cc(Cl)c3ccccc3c2OC)cc(Cl)c2ccccc12.CS(=O)(=O)O [TCMDC-137958]
IC50 [1]: 1.18 µM
Is compound selective in assay? Pf FGAA active? [2]: 0 (0: NO)
HepG2 cytoxicity (Pf FGAA screen) [3]: 4.62 µM

COc1ccc(CCNCCCCNCCc2ccc(OC)c3ccccc23)c2ccccc12.CS(=O)(=O)O [TCMDC-137961]
IC50 [1]: 0.48 µM
Is compound selective in assay? Pf FGAA active? [2]: 0 (0: NO)
HepG2 cytoxicity (Pf FGAA screen) [3]: 2.14 µM

CCCCOc1c(CNCCCCCCNCc2ccc3ccccc3c2OCCCC)ccc2ccccc12.CS(=O)(=O)O [TCMDC-137975]
IC50 [1]: 1.49 µM
Is compound selective in assay? Pf FGAA active? [2]: 0 (0: NO)
HepG2 cytoxicity (Pf FGAA screen) [3]: 2.21 µM

COc1ccccc1-c1nc2c(ccc3nc(N)nc(N)c32)[nH]1 [TCMDC-137976]
IC50 [1]: 1.13 µM
Is compound selective in assay? Pf FGAA active? [2]: 0 (0: NO)
HepG2 cytoxicity (Pf FGAA screen) [3]: 2.87 µM

CCCN(CCC)CCCN(CCCN(CCC)CCC)c1cc(C)nc(Nc2ccc3cc(Br)ccc3c2)n1.Cl [TCMDC-138006]
IC50 [1]: 0.99 µM
Is compound selective in assay? Pf FGAA active? [2]: 0 (0: NO)
HepG2 cytoxicity (Pf FGAA screen) [3]: 3.43 µM

Cl.Clc1ccc(CNCCCCCCCNCc2ccc(Cl)c(Cl)c2)cc1Cl [TCMDC-138075]
IC50 [1]: 0.7 µM
Is compound selective in assay? Pf FGAA active? [2]: 0 (0: NO)
HepG2 cytoxicity (Pf FGAA screen) [3]: 4.57 µM

COc1cc2nc(N3CCC(CNC(=O)c4ccc(-c5ccc(-c6noc(C)n6)cc5C)cc4)CC3)nc(N)c2cc1OC [TCMDC-138155]
IC50 [1]: 1.68 µM
Is compound selective in assay? Pf FGAA active? [2]: 0 (0: NO)
HepG2 cytoxicity (Pf FGAA screen) [3]: 7.62 µM

COc1ccc(N2CCN(CCCCNCc3ccc(NC(=O)c4cc(Cl)cc(Cl)c4)cc3)CC2)c(OC)c1 [TCMDC-138226]
IC50 [1]: 3.11 µM
Is compound selective in assay? Pf FGAA active? [2]: 0 (0: NO)
HepG2 cytoxicity (Pf FGAA screen) [3]: 4.42 µM

COc1cc2nc(Nc3ccc4c(ccn4Cc4ccccc4)c3)nc(Nc3ccc4c(ccn4Cc4ccccc4)c3)c2cc1OC [TCMDC-138237]
IC50 [1]: 1.58 µM
Is compound selective in assay? Pf FGAA active? [2]: 0 (0: NO)
HepG2 cytoxicity (Pf FGAA screen) [3]: 14.13 µM
